Test results: patent publication US7981878B2, “Tumor treatment with gliotoxin derivatives” (priority 2005, dated 2011)

Tests used:
γ-secretase = γ-secretase inhibitor; cited from earlier work
Notch2 (N2^IC) = experiment: Nuclear Notch2 activity in B-CLL cells by EMSA (band shift assay); assay type: cell-based, human; settings: B-CLL cell cultures incubated with 50 nM Dapt
Description: FIG. 3: Gliotoxin is a potent Notch2 trans-activation inhibitor in B-CLL cells. (A) EMSA showing the inhibition of DNA-bound Notch2IC complexes in the presence of 0.2 μg Gliotoxin. B-CLL samples (n=10) were cultured in the presence of 1 ng/ml TPA with or without 0.2 μM Gliotoxin for 24 hours. Nuclear extracts were subjected to EMSA using a oligonucleotide probe spanning a well defined CBF1/NotchIC binding site derived from the CD23a promoter. (B). Corresponding FACS analysis (plus 10 additional B-CLL samples) showing the downregulation of the Notch2 target gene CD23 as well as the induction of apoptosis of Gliotoxin treated B-CLL samples. Columnes represent the percentage of CD19^+CD23^+ (grey bars) and apoptotic cells (black bars: including early apoptotic cells single positive for AnnexinV, and late apoptotic cells double positive for AnnexinV and probidium iodide), respectively.
As drug screening model, a cell culture system was established which conserves the phenotype of freshly isolated B-CLL cells (3×10^6 B-CLL cells/ml RPMI medium+10% FCS, supplemented with 1 ng/ml of TPA). Notch2 activity in the cell nucleus is determined by means of EMSA (electrophoretic mobility shift assay) experiments, and the cell viability (Probidium iodide/annexinV) and CD23 expression (Notch2 target gene) is determined by means of FACS (flow cytometry) analyses, respectively. […]

[1] = tested on: K 562, U 937, HCT-15, HCT-116, SW946, LX-1, P 388, colon-26 cell lines; settings: as indicated in EP 926 242 A1; cited from earlier work

Row | Compound | IC50 (γ-secretase) [nM] | influence on the activity of N2^IC (Notch2 (N2^IC)) | efficacy against tumour cell lines [1]
1 | C[C@H](NC(=O)Cc1cc(F)cc(F)c1)C(=O)N[C@H](C(=O)OC(C)(C)C)c1ccccc1 [Dapt, reference compound] | 5 to 10 | no influence | –
2 | acetylgliotoxin | – | – | effective
